Values quoted from earlier work in patent EP2662403B1, “Stabilizing resin formulation of halogen-containing polymers” (Reagens S.p.A., priority 2012, dated 2013).
Like-named read-outs stand apart in the source and are kept apart here.

Conditions: indication of the basicity of the polyalkylpiperidine in the formulation, no method or source given

Compound | pKb (Table 11) | pKb (Table 9) | pKb (Table 10) | pKb (Table 12)
CCCCN(c1nc(NCCCN(CCN(CCCNc2nc(N(CCCC)C3CC(C)(C)N(C)C(C)(C)C3)nc(N(CCCC)C3CC(C)(C)N(C)C(C)(C)C3)n2)c2nc(N(CCCC)C3CC(C)(C)N(C)C(C)(C)C3)nc(N(CCCC)C3CC(C)(C)N(C)C(C)(C)C3)n2)c2nc(N(CCCC)C3CC(C)(C)N(C)C(C)(C)C3)nc(N(CCCC)C3CC(C)(C)N(C)C(C)(C)C3)n2)nc(N(CCCC)C2CC(C)(C)N(C)C(C)(C)C2)n1)C1CC(C)(C)N(C)C(C)(C)C1 [Chimassorb 119] | 5.5-8.5 | – | – | –
CN1C(C)(C)CC(OC(=O)CCCCCCCCC(=O)OC2CC(C)(C)N(C)C(C)(C)C2)CC1(C)C [Tinuvin 765, bis(1,2,2,6,6-pentamethyl-4-piperidyl)sebacate] | 5.5-8.5 | – | – | –
CC1(C)CC(OC(=O)CCCCCCCCC(=O)OC2CC(C)(C)NC(C)(C)C2)CC(C)(C)N1 [Tinuvin 770, bis(2,2,6,6,-tetramethyl-4-piperidyl)sebacate] | 4.3-7.4 | 4.3-7.4 | 4.3-7.4 | 4.3-7.4
